Like-named read-outs stand apart in the source and are kept apart here.
Key:
12-lipoxygenase = target: T1, 12-lipoxygenase (Rattus norvegicus, UniProt F1LQ70); experiment: 12-lipoxygenase inhibition assay (rat platelet enzyme solution); assay type: biochemical, Sprague Dawley male rat; details: for inhibition at 1 µM: 10^-6 (mole concentration); for inhibition at 0.1 µM: 10^-7 (mole concentration)
T1 construct: The pelleted platelets were rinsed twice with a washing buffer; from tissue; host or cells: platelets of Sprague Dawley male rat (sonicate, 100,000 x g supernatant)
T1 sequence (F1LQ70 1-663): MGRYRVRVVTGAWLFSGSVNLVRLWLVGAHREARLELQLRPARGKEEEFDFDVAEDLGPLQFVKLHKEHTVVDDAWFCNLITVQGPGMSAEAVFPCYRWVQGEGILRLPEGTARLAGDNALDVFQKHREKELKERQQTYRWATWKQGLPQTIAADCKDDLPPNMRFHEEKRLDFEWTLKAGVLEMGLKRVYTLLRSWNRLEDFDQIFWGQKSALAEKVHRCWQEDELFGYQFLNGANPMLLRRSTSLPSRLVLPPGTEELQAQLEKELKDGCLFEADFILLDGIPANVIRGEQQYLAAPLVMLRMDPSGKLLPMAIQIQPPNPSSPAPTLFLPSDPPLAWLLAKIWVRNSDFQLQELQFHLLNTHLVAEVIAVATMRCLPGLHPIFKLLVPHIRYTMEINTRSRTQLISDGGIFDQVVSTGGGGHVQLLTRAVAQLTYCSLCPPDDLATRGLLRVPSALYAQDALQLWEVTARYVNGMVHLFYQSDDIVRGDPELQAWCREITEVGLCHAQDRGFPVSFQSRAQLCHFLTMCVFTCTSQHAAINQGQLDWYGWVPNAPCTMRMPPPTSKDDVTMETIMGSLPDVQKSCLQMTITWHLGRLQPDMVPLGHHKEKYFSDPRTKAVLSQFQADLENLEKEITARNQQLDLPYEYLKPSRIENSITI
Experimental: The test was performed to examine inhibitory effect of various compounds on the 12-lipoxyganase activity.
1) Preparation of Enzyme Solution
A Sprague Dawley male rat was anesthetized with ether and bled from abdominal aorta using a syringe filled with about one-tenth volume of 3.8% sodium citrate. Blood was centrifuged at 180×g for 15 minutes at room temperature to pellet sanguineous platelet blood plasma. The resultant supernatant was again centrifuged at 1800×g for 10 minutes at 4° C. The pelleted platelets were rinsed twice with a washing buffer (50 mM Tris-hydrochloric acid buffer containing 154 mM sodium chloride and 2 mM EDTA, pH: 7.4). The platelets were then suspended in one-twentieth volume of a resuspension buffer (50 mM Tris-hydrochloric acid buffer containing 154 mM sodium chloride and 5.5 mM glucose, pH: 7.4). The platelets were then sonicated at 4° C. and centrifuged at 100,000×g for 30 minutes to obtain a supernatant as a 12-lipoxgenaseenzyme solution.
2) Procedure for 12-lipoxgenase inhibition assay
The enzyme solution described above was diluted with the resuspension buffer above mentioned to prepare an assay solution so as to include about 2 mU/ml of 12-lipoxygenase. […] The resultant mixture was incubated at 37° C. for 5 minutes. Subsequently, 3 μl of a 2.5 mM arachidonic acid solution in ethanol was added to incubate with for another 5 minutes at 37° C., then the reaction was ceased by the addition of 600 μl of methanol. After being centrifuged at 10,000×g for 5 minutes, 12-hydroxyeicosatetraenoic acid recovered in the supernatant was separated with a reverse phase high-performance liquid chromatography equipped with a […] the activity of 12 lipoxygenase.
The enzyme solution was prepared according to the same manner as in Test Example 1.
It was prepared according to the same procedure as in Test Example 1.
Measurement was performed according to the same procedure as in Test Example 1.
The measurement was performed according to the same procedure as in Test Example 1.

5-lipoxygenase = target: T2, 5-lipoxygenase (Rattus norvegicus, UniProt P12527); experiment: 5-lipoxygenase inhibition assay (rat basophilic leukemia cell RBL-1 enzyme solution); assay type: biochemical
T2 construct: Cultured cells were collected and washed twice; host or cells: RBL-1 rat basophilic leukemia cells (sonicate, 10,000 x g supernatant)
T2 sequence (P12527 1-673): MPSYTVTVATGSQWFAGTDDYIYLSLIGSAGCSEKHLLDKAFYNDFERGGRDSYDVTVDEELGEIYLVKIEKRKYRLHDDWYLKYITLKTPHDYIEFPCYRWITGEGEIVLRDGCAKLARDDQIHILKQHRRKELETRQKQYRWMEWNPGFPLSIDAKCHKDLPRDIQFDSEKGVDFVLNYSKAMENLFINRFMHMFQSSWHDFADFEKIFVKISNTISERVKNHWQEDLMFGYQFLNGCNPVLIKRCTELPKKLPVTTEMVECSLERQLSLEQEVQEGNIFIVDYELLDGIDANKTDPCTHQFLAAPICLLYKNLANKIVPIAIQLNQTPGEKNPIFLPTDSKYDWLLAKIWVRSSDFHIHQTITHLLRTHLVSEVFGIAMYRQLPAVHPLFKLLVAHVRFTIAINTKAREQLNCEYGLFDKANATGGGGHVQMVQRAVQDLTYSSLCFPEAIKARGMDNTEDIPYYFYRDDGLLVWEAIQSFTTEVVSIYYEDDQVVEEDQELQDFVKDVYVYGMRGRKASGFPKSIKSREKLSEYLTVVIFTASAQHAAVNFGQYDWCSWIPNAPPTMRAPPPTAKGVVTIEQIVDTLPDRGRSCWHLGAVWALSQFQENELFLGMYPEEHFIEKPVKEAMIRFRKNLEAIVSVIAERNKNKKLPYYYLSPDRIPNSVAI
Experimental: The test was carried out to examine the selectivity toward 12-lipoxgenase of the compounds of the first embodiment in the present invention.
i) Preparation of 5-lipoxgenase enzyme solution
Rat basophilic leukemia cells (RBL-1, ATCC CRL1378) were cultured in Dulbecco modified Eagle's medium containing 10% new-born bovine serum.
Cultured cells were collected and washed twice with a 50 mM Tris-buffered saline (containing 154 mM sodium chloride, pH: 7.4, hereinafter described as TBS). The cell suspension (4×10^7 cells/ml) was then sonicated and centrifuged at 10,000×g for 10 minutes.
The resultant supernatant was used to prepare an assay solution.
i) Procedure for 5-lipoxgenase inhibition assay
To an aliquot (15 μl) of the enzyme solution (40 mU/ml equivalent) was added 185 μl of TBS, 50 μl of a 2 mM adenosine triphosphate in TBS, 50 μl of a 12 mM calcium chloride in TBS, 1 μl of a 3 mM indomethacin in ethanol solution, 1 μl of an aqueous 300 mM reduced glutathione solution, and 3 μl of varied concentrated test compounds solution in ethanol. The resultant mixture was incubated at 37° C. for 5 minutes. Subsequently, 3 μl of a 2.5 mM arachidonic acid solution in ethanol was added to incubate the mixture for 2 minutes at 37° C. The reaction was ceased by the addition of 600 μl of methanol After being centrifuged at 10,000×g for 5 minutes, 5-hydroxyeicosatetraenoic acid recovered in the supernatant was separated with a reverse phase high-performance liquid chromatography equipped with a C-18 column and measured the absorption of diene at 234 nm to quantify the activity of the enzyme. […]
The enzyme activities of the compounds of the present invention prepared according to the same procedure as in Examples 54-58 to be described later and baicalein as sample substances at varied concentrations were measured according to the above-mentioned method, and mole concentrations showing 50% 12-lipoxgenase and 5-lipoxgenase inhibition ratios (hereinafter may be described as IC50 values) were obtained from the measured values of the sample substances.

[1] = Table 3, read-out: IC50 values of 12-lipoxygenase (mole)
[2] = Table 3, read-out: IC50 values of 5-lipoxygenase (mole)
[3] = Table 23, read-out: 12-Lipoxygenase inhibitory effect IC50
[4] = Table 23, read-out: 5-Lipoxygenase inhibitory effect IC50
[5] = Table 12, deacylated compounds, read-out: 12-Lipoxygenase inhibitory effect of deacylated compounds (IC50 values)
[6] = 10^-5 (mole concentration), 10 µM
[7] = 10^-5 (mole concentration), read-out: 12-Lipoxygenase inhibition ratio (%)
[8] = read-out: 12-Lipoxygenase inhibition ratio (%)
[9] = Table 2, read-out: 12-Lipoxygenase IC50 values

CCc1ccc(C(C#N)=Cc2ccc(O)c(O)c2)cc1 [Ex. 11]
IC50 (12-lipoxygenase; [1]): 0.0058 µM
IC50 (5-lipoxygenase; [2]): 0.046 µM

CCc1ccc(C=C(C#N)c2ccc(O)c(O)c2)cc1 [Ex. 26, α-cyano-4'-ethyl-3,4-dihydroxystilbene]
IC50 (12-lipoxygenase; [1]): 0.0042 µM
IC50 (5-lipoxygenase; [2]): 0.032 µM

N#CC(=Cc1cc(O)c(O)c(O)c1)c1ccc(Cl)cc1 [Ex. 15, α-cyano-4-chloro-3',4',5'-trihydroxystilbene]
IC50 (12-lipoxygenase; [1]): 0.014 µM
IC50 (5-lipoxygenase; [2]): 0.056 µM

N#CC(=Cc1ccc(O)c(O)c1)c1ccc2ccccc2c1 [Formula 23c]
IC50 (12-lipoxygenase; [3]): 0.01 µM
IC50 (5-lipoxygenase; [4]): 0.03 µM

Cc1ccc(C=C(C#N)c2ccc(O)c(O)c2)s1 [Ex. 27, α-(5-methylthiophen-2-ylmethylidene)-3,4-dihydroxybenzeneacetonitrile]
IC50 (12-lipoxygenase; [1]): 0.0077 µM
IC50 (5-lipoxygenase; [2]): 0.066 µM

N#CC(=Cc1ccc(O)c(O)c1)c1cc(Br)cs1 [Ex. 13, α-(3,4-dihydroxybenzylidene)-4-bromothiophene-2-acetonitrile]
IC50 (12-lipoxygenase; [1]): 0.003 µM
IC50 (12-lipoxygenase; [5]): 0.003 µM
IC50 (5-lipoxygenase; [2]): 0.036 µM

N#CC(=Cc1ccc(O)cc1)c1ccc(Cl)cc1 [Comp. Ex. 2, reference compound]
12-Lipoxygenase inhibition ratio (%) (12-lipoxygenase; [6]): 10%
inhibition at 10 µM (12-lipoxygenase; [7]): < 10%
inhibition at 1 µM (12-lipoxygenase; [8]): 2%
inhibition at 0.1 µM (12-lipoxygenase; [8]): 5%

Oc1ccc(/C=C/c2ccccc2)cc1O [Comp. Ex. 5, reference compound]
12-lipoxygenase inhibitory effect (in words) (12-lipoxygenase): remarkably poor compared with that of the compound (Example 1)
IC50 (12-lipoxygenase; [9]): 1.2 µM

N#CC(=Cc1ccc(F)cc1)c1ccc(O)c(O)c1 [Ex. 21, α-cyano-4'-fluoro-3,4-dihydroxystilbene]
IC50 (12-lipoxygenase; [1]): 0.0048 µM
IC50 (12-lipoxygenase; [5]): 0.0048 µM
IC50 (5-lipoxygenase; [2]): 0.074 µM

COc1cc(C=C(C#N)c2ccc(Cl)cc2)ccc1O [Comp. Ex. 4, reference compound]
12-Lipoxygenase inhibition ratio (%) (12-lipoxygenase; [6]): 2%
inhibition at 1 µM (12-lipoxygenase; [8]): 0%
inhibition at 0.1 µM (12-lipoxygenase; [8]): 0%

CCOC(=O)C(=Cc1ccc(O)c(O)c1)c1ccccc1 [Comp. Ex. 6, reference compound]
12-lipoxygenase inhibitory effect (in words) (12-lipoxygenase): remarkably poor compared with that of the compound (Example 1)
IC50 (12-lipoxygenase; [9]): 0.16 µM

N#CC(=Cc1ccc(O)c(O)c1)c1ccc(Br)s1 [Ex. 14]
IC50 (12-lipoxygenase; [1]): 0.0036 µM
IC50 (5-lipoxygenase; [2]): 0.026 µM

N#CC(=Cc1ccc(Cl)cc1)c1ccc(O)c(O)c1 [Ex. 2, α-cyano-4'-chloro-3,4-dihydroxystilbene]
IC50 (12-lipoxygenase; [1]): 0.0018 µM
IC50 (12-lipoxygenase; [5]): 0.0018 µM
IC50 (5-lipoxygenase; [2]): 0.056 µM

N#CC(=Cc1ccc(O)c(O)c1)c1ccc(F)cc1 [Ex. 3]
IC50 (12-lipoxygenase; [1]): 0.0048 µM
IC50 (5-lipoxygenase; [2]): 0.094 µM

N#CC(=Cc1ccc2ccccc2c1)c1ccc(O)c(O)c1 [Formula 24c]
IC50 (12-lipoxygenase; [3]): 0.0056 µM
IC50 (5-lipoxygenase; [4]): 0.028 µM

N#CC(=Cc1ccc(O)c(O)c1)c1ccc(O)c(O)c1 [Comp. Ex. 8, reference compound]
IC50 (12-lipoxygenase; [9]): 0.3 µM

Cc1ccc(C(C#N)=Cc2ccc(O)c(O)c2)cc1 [Ex. 6]
IC50 (12-lipoxygenase; [1]): 0.0045 µM
IC50 (5-lipoxygenase; [2]): 0.048 µM

N#CC(=Cc1ccc(O)c(O)c1)c1csc2ccccc12 [Formula 22c]
IC50 (12-lipoxygenase; [3]): 0.0086 µM
IC50 (5-lipoxygenase; [4]): 0.056 µM

N#CC(=Cc1ccc(O)c(O)c1)c1ccc(O)cc1 [Comp. Ex. 7, reference compound]
IC50 (12-lipoxygenase; [9]): 0.23 µM

N#CC(=Cc1ccc(Br)cc1)c1ccc(O)c(O)c1 [Ex. 23, α-cyano-4'-bromo-3,4-dihydroxystilbene]
IC50 (12-lipoxygenase; [1]): 0.0022 µM
IC50 (12-lipoxygenase; [5]): 0.0036 µM
IC50 (5-lipoxygenase; [2]): 0.07 µM

N#CC(=Cc1ccc(C(=O)O)cc1)c1ccc(O)c(O)c1 [Comp. Ex. 9, reference compound]
IC50 (12-lipoxygenase; [9]): 5 µM

N#CC(=Cc1cccc(O)c1)c1ccc(Cl)cc1 [Comp. Ex. 1, reference compound]
12-Lipoxygenase inhibition ratio (%) (12-lipoxygenase; [6]): 7%
inhibition at 10 µM (12-lipoxygenase; [7]): < 10%
inhibition at 1 µM (12-lipoxygenase; [8]): 1%
inhibition at 0.1 µM (12-lipoxygenase; [8]): 0%

COc1ccc(C=C(C#N)c2ccc(Cl)cc2)cc1O [Comp. Ex. 3, reference compound]
12-Lipoxygenase inhibition ratio (%) (12-lipoxygenase; [6]): 10%
inhibition at 10 µM (12-lipoxygenase; [7]): < 10%
inhibition at 1 µM (12-lipoxygenase; [8]): 1%
inhibition at 0.1 µM (12-lipoxygenase; [8]): 0%

Cc1ccc(C=C(C#N)c2ccc(O)c(O)c2)cc1 [Ex. 24, α-cyano-4'-methyl-3,4-dihydroxystilbene]
IC50 (12-lipoxygenase; [1]): 0.0025 µM
IC50 (12-lipoxygenase; [5]): 0.0045 µM
IC50 (5-lipoxygenase; [2]): 0.052 µM

N#CC(=Cc1ccc(O)c(O)c1)c1ccc(Cl)cc1 [Ex. 1, α-cyano-4-chloro-3',4'-dihydroxystilbene]
inhibition at 10 µM (12-lipoxygenase; [7]): 97%
inhibition at 1 µM (12-lipoxygenase; [8]): 97%
inhibition at 0.1 µM (12-lipoxygenase; [8]): 98%
12-Lipoxygenase inhibition ratio (%) (12-lipoxygenase; 10^-8 (mole concentration), 0.01 µM): 73%
12-Lipoxygenase inhibition ratio (%) (12-lipoxygenase; 10^-8 (mole concentration), 0.01 µM, listed as Example 1, 0.01 µM): 73%
inhibition at 0.001 µM (12-lipoxygenase; 10^-9 (mole concentration), read-out: 12-Lipoxygenase inhibition ratio (%)): 1%
IC50 (12-lipoxygenase; [9]): 0.0042 µM
IC50 (12-lipoxygenase; [1]): 0.0042 µM
IC50 (12-lipoxygenase; [5]): 0.0042 µM
IC50 (5-lipoxygenase; [2]): 0.038 µM

COc1ccc(C(C#N)=Cc2ccc(O)c(O)c2)cc1 [Formula 55b, α-cyano-4-methoxy-3',4'-dihydroxystilbene]
IC50 (12-lipoxygenase; [5]): 0.006 µM

From US5589506A, “Stilbene derivative and stilbene analog derivative, and use thereof” (Morinaga Milk Industry Co., Ltd., priority 1993, dated 1996)
